Assay results from article PMC7782793, “Hydroxamic acid-modified peptide microarrays for profiling isozyme-selective interactions and inhibition of histone deacetylases” (Nature Communications, 2021).
Values joined by “and” are separate entries in the source; they are usually repeats but may differ in a detail not shown here. Equal entries are not always repeated. Marks after values point to notes of the source that are not given here. Non-standard residues stand in square brackets, D forms with d. Residues, ends and D or L forms follow the SMILES beside them. *: point of attachment. Asu = N[C@@H](CCCCCC(=O)O)C(=O)O; NHOH = ON*

Tests used:
HDAC3/NCoR2 [1] = molecular target: T1, HDAC3/NCoR2 (Homo sapiens, UniProt O15379); assay: HDAC inhibition assay (fluorogenic, Ac-Leu-Gly-Lys(Ac)-AMC); assay type: biochemical; settings: for HDAC3 dose-response data (relative enzyme activity), Fig. 6 + S. Fig. 10: duplicate columns
T1 construct: HDAC3/NCoR2 (full length, C-terminal His tag, NCoR2 N-terminal GST tag); purchased BPS Bioscience 50003
T1 sequence (O15379 whole entry): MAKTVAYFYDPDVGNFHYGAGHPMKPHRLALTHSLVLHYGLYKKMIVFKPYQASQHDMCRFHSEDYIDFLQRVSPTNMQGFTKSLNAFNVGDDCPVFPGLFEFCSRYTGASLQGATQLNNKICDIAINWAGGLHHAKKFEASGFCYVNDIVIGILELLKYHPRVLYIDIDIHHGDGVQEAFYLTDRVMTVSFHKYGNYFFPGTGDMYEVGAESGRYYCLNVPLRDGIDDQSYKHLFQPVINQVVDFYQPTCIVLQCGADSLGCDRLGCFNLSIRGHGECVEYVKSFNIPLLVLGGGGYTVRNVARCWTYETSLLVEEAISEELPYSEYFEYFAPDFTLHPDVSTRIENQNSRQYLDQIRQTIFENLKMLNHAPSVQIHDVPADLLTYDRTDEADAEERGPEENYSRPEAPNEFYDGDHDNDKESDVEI
T1 sequence (Q9Y618 389-480 partner limits assumed): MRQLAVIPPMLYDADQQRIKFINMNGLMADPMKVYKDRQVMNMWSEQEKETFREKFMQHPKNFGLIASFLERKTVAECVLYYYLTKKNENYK

HDAC8 [2] = molecular target: T2, HDAC8 (Homo sapiens, UniProt Q9BY41); assay: Recombinant HDAC µSPOT microarray binding assay;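 also: peptide µSPOT slides incubated with varying HDAC enzyme concentrations, imaged signal intensity fitted by four-parameter variable-slope regression, EC50 is enzyme concentration giving half-maximal binding, pH 7.4 HEPES buffer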
T2 construct: HDAC8 (full length, C-terminal His tag, BPS Bioscience, cat. #: 50008); purchased BPS Bioscience 50008
T2 sequence (Q9BY41 1-377): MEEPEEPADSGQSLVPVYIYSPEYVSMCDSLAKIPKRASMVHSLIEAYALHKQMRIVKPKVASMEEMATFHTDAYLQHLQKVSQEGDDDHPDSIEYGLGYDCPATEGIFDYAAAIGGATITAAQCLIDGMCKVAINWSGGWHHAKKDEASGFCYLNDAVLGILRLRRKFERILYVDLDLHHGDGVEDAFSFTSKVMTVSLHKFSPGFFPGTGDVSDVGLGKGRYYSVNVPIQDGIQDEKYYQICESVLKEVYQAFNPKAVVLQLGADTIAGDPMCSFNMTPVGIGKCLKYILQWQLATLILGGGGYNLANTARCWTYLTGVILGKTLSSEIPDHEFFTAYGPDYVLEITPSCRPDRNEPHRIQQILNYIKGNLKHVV

HDAC2 [3] = molecular target: T3, HDAC2 (Homo sapiens, UniProt Q92769); assay: Recombinant HDAC µSPOT microarray binding assay;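 also: Cellulose-bound peptide spots on slides incubated with six HDAC enzyme concentrations, binding intensity read, four-parameter variable-slope fit, EC50 is enzyme concentration giving half-maximal binding, in HEPES buffer pH 7.4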
T3 construct: HDAC2 (full length, C-terminal His tag, BPS Bioscience, cat. #: 50002); purchased BPS Bioscience 50002
T3 sequence (Q92769 whole entry): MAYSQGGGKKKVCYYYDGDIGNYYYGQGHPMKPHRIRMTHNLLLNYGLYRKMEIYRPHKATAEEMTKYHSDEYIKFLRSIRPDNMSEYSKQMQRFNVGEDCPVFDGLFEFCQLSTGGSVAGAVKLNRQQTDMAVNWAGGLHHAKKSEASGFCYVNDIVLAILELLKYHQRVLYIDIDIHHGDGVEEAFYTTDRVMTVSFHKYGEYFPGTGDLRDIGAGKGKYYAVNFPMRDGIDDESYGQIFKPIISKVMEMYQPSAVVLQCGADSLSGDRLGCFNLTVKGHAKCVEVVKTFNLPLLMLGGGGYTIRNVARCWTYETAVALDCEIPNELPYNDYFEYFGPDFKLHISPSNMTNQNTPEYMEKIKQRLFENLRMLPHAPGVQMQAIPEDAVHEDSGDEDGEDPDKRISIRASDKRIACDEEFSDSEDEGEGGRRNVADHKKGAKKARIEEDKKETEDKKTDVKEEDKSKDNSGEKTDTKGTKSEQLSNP

HDAC3/NCoR2 [4] = molecular target: T1, HDAC3/NCoR2; assay: Recombinant HDAC µSPOT microarray binding assay;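 also: peptide spots on cellulose slides incubated with rising HDAC enzyme concentrations, imaged together, four-parameter logistic fit, EC50 is enzyme concentration giving half-maximal binding signal, two experiments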
HDAC2 [5] = molecular target: T3, HDAC2; assay: HDAC inhibition assay (fluorogenic, Ac-Leu-Gly-Lys(Ac)-AMC); assay type: biochemical; settings: for HDAC2 dose-response data (relative enzyme activity), Fig. 6 + S. Fig. 10: duplicate columns
HDAC8 [6] = molecular target: T2, HDAC8; assay: HDAC inhibition assay (fluorogenic, Ac-Leu-Gly-Lys(Tfa)-AMC); assay type: biochemical; settings: for HDAC8 dose-response data (relative enzyme activity, replicate values), Fig. 6 + S. Fig. 10: two replicate columns per inhibitor; for HDAC8 dose-response data (relative enzyme activity), Fig. 6 + S. Fig. 10: duplicate columns
[7] = log[inhibitor(M)] -10,5850266520292*, whole line marked with asterisks

CC[C@H](C)[C@H](NC(=O)[C@H](CCC(=O)O)NC(=O)[C@H](CCCNC(=N)N)NC(=O)[C@H](CO)NC(=O)[C@@H](NC(=O)[C@@H](NC(=O)[C@@H](NC(=O)[C@H](CO)NC(=O)[C@H](CCCNC(=N)N)NC(=O)[C@H](CCCCCC(=O)NO)NC(=O)[C@H](CC(N)=O)NC(=O)[C@H](Cc1ccc(O)cc1)NC(=O)[C@H](Cc1c[nH]cn1)NC(C)=O)[C@@H](C)O)[C@@H](C)CC)[C@@H](C)O)C(=O)N[C@@H](CCC(N)=O)C(=O)N[C@H](C(=O)N[C@@H](C)C(=O)N[C@@H](Cc1c[nH]c2ccccc12)C(N)=O)[C@@H](C)O [12a] (Ac-HYN[Asu](NHOH)RSTITSREIQTAW-NH2)
HDAC3 dose-response data (relative enzyme activity), Fig. 6 + S. Fig. 10 (HDAC3/NCoR2 [1]; log[inhibitor(M)] -6.39794): 16.4324 and 13.9407
HDAC3 dose-response data (relative enzyme activity), Fig. 6 + S. Fig. 10 (HDAC3/NCoR2 [1]; log[inhibitor(M)] -7.09691): 38.5352 and 35.6199
HDAC3 dose-response data (relative enzyme activity), Fig. 6 + S. Fig. 10 (HDAC3/NCoR2 [1]; log[inhibitor(M)] -7.79588): 73.2464 and 64.9902
HDAC3 dose-response data (relative enzyme activity), Fig. 6 + S. Fig. 10 (HDAC3/NCoR2 [1]; log[inhibitor(M)] -8.49485): 93.6652 and 87.0389
HDAC3 dose-response data (relative enzyme activity), Fig. 6 + S. Fig. 10 (HDAC3/NCoR2 [1]; log[inhibitor(M)] -9.19382): 96.2351 and 93.241
HDAC3 dose-response data (relative enzyme activity), Fig. 6 + S. Fig. 10 (HDAC3/NCoR2 [1]; log[inhibitor(M)] -9.89279): 95.5729 and 96.0845
HDAC3 dose-response data (relative enzyme activity), Fig. 6 + S. Fig. 10 (HDAC3/NCoR2 [1]; [7]): 103,997369* and 102,157851*
selectivity for HDAC3 vs. HDACs 1 and 2 (HDAC3/NCoR2 [1]; resynthesized peptides, from Ki): ~ 2 fold
EC50 (HDAC8 [2]): > 25.1 nM
EC50 (HDAC2 [3]): > 25.1 nM
EC50 (HDAC3/NCoR2 [4]): 2.57 nM
HDAC2 dose-response data (relative enzyme activity), Fig. 6 + S. Fig. 10 (HDAC2 [5]; log[inhibitor(M)] -5): 3.067 and 2.914
HDAC2 dose-response data (relative enzyme activity), Fig. 6 + S. Fig. 10 (HDAC2 [5]; log[inhibitor(M)] -5.69897): 11.3787 and 10.2695
HDAC2 dose-response data (relative enzyme activity), Fig. 6 + S. Fig. 10 (HDAC2 [5]; log[inhibitor(M)] -7.79588): 90.7701 and 92.8679
HDAC2 dose-response data (relative enzyme activity), Fig. 6 + S. Fig. 10 (HDAC2 [5]; [7]): 102,18881* and 100,790249*
Ki (HDAC2 [5]; resynthesized peptide in solution, Cheng-Prusoff, n = 2): 23.8 ± 0.1 nM
Ki (HDAC8 [6]): 672 ± 2 nM
HDAC8 dose-response data (relative enzyme activity, replicate values), Fig. 6 + S. Fig. 10 (HDAC8 [6]; Inhibitor conc [M] -8.49485 (log)): 96.596 and 95.5531
HDAC8 dose-response data (relative enzyme activity, replicate values), Fig. 6 + S. Fig. 10 (HDAC8 [6]; Inhibitor conc [M] -9.19382 (log)): 96.9206 and 97.7957
HDAC8 dose-response data (relative enzyme activity, replicate values), Fig. 6 + S. Fig. 10 (HDAC8 [6]; Inhibitor conc [M] given as -7.09691 (log)): 89.149 and 90.0695
HDAC8 dose-response data (relative enzyme activity, replicate values), Fig. 6 + S. Fig. 10 (HDAC8 [6]; Inhibitor conc [M] given as -7.79588 (log)): 96.5655 and 96.7922
HDAC8 dose-response data (relative enzyme activity, replicate values), Fig. 6 + S. Fig. 10 (HDAC8 [6]; Inhibitor conc [M] given as -9.89279 (log)): 97.4718 and 97.8478
HDAC8 dose-response data (relative enzyme activity, replicate values), Fig. 6 + S. Fig. 10 (HDAC8 [6]; Inhibitor conc [M] given as -10.585 (log)): 100,321515* and 100,605272*
HDAC8 dose-response data (relative enzyme activity), Fig. 6 + S. Fig. 10 (HDAC8 [6]; Inhibitor conc [M] -4.30103): 4.131 and 3.99
HDAC8 dose-response data (relative enzyme activity), Fig. 6 + S. Fig. 10 (HDAC8 [6]; Inhibitor conc [M] -5): 13.2204 and 13.7487
HDAC8 dose-response data (relative enzyme activity), Fig. 6 + S. Fig. 10 (HDAC8 [6]; Inhibitor conc [M] -5.69897): 34.8849 and 37.2156
HDAC8 dose-response data (relative enzyme activity), Fig. 6 + S. Fig. 10 (HDAC8 [6]; Inhibitor conc [M] -6.39794): 67.169 and 68.3219
